Measurements reported in paper PMC12077191, “Aeromonas hydrophila RTX adhesin has three ligand-binding domains that give the bacterium the potential to adhere to and aggregate a wide variety of cell types” (mBio, 2025).

Legend:
[1] = target: T1, AhLap RTX adhesin, carbohydrate-binding module (AhLapCBM3) (Aeromonas hydrophila, UniProt A0KNW4); experiment: printed mammalian glycan array (CFG v5.[…]), GFP fluorescence; set-up: gene AHA_3491; GFP-tagged AhLapCBM3 (Asn3455 to Gly3940)
[2] = target: T1, AhLap RTX adhesin, carbohydrate-binding module (AhLapCBM3); experiment: isothermal titration calorimetry at […] °C; […] also blocks binding to cells; set-up: gene AHA_3491; AhLapCBM3, three-domain construct Asn3455 to Gly3940 (extender domain, split domain and CBM), His-tagged
[3] = target: T1, AhLap RTX adhesin, carbohydrate-binding module (AhLapCBM3); experiment: isothermal titration calorimetry at […] °C; also glycan array; set-up: gene AHA_3491; AhLapCBM3, three-domain construct Asn3455 to Gly3940 (extender domain, split domain and CBM), His-tagged

## CC(=O)N[C@H]1C(O)O[C@H](CO)[C@@H](O[C@@H]2O[C@H](CO)[C@H](O)[C@H](O)[C@H]2O[C@@H]2O[C@@H](C)[C@@H](O)[C@@H](O)[C@@H]2O)[C@@H]1O[C@@H]1O[C@@H](C)[C@@H](O)[C@@H](O)[C@@H]1O (mixture of isomers) [Lewis Y antigen]
[1]
  printed mammalian glycan array (CFG v5.4), GFP fluorescence: Strong binding was observed to the Lewis B and Lewis Y antigens

## C[C@@H]1OC(O)[C@@H](O)[C@H](O)[C@@H]1O (stereo partly drawn) [L-fucose]
[2]
  Kd: ~386 µM

## CC(=O)N[C@@H]1[C@@H](O[C@@H]2O[C@H](CO)[C@H](O)[C@H](O)[C@H]2O[C@@H]2O[C@@H](C)[C@@H](O)[C@@H](O)[C@@H]2O)[C@H](O[C@@H]2O[C@@H](C)[C@@H](O)[C@@H](O)[C@@H]2O)[C@@H](CO)O[C@H]1O [Lewis B antigen]
[3]
  Kd: 20.8 µM
